Laboratory results published in patent US8741884B2, “Compounds for the treatment of hepatitis C” (priority 2010, dated 2014).

What follows are compounds tested on HCV pseudoparticles (genotype 1a HCV E1 and E2 envelope, H77C isolate) (assay: microbe, parasite or virus in culture). Details: Hepatitis C virus, Huh-7, 48 h, class symbol; HCV pseudoparticles genotype 1a (H77C), Huh7 cells, luciferase 2 days after infection, average of duplicates.
Type: cell-based

| Compound | EC50 [nM] |
| --- | --- |
| CC[C@@H](C)[C@H](NC(=O)c1ccc2cc1OCCCCCCOc1ccc(cc1)CNc1nc(nc(OCC(F)(F)F)n1)N2)C(=O)O [Example 1404] | 0.1 to 100 |
| O=C(NC(Cc1ccccc1)C(=O)O)c1ccc2cc1OCCCCCCOc1ccc(cc1)CNc1nc(nc(OCC(F)(F)F)n1)N2 (centres unmarked) [Example 1405] | 0.1 to 100 |
| CC(C)(C)OC(=O)N1CCC(C(NC(=O)c2ccc3cc2OCCCCCCOc2ccc(cc2)CNc2nc(nc(OCC(F)(F)F)n2)N3)C(=O)O)CC1 (centres unmarked) [Example 1406] | 0.1 to 100 |
| CC(C)(C)OC(=O)N1CCCC1CC(NC(=O)c1ccc2cc1OCCCCCCOc1ccc(cc1)CNc1nc(nc(OCC(F)(F)F)n1)N2)C(=O)O (centres unmarked) [Example 1407] | 0.1 to 100 |
| O=C(O)CCCCNC(=O)c1ccc2cc1OCCCCCCOc1ccc(cc1)CNc1nc(nc(OCC(F)(F)F)n1)N2 [Example 1408] | 0.1 to 100 |
| CC(C)(C)OC(=O)NC(CNC(=O)c1ccc2cc1OCCCCCCOc1ccc(cc1)CNc1nc(nc(OCC(F)(F)F)n1)N2)C(=O)O (centres unmarked) [Example 1409] | 0.1 to 100 |
| CC(C)(C)OC(=O)N1CCC(NC(=O)c2ccc3cc2OCCCCCCOc2ccc(cc2)CNc2nc(nc(OCC(F)(F)F)n2)N3)(C(=O)O)CC1 [Example 1410] | 100 to 1000 |
| CC(C)(C)OC(=O)N[C@@H](CCNC(=O)c1ccc2cc1OCCCCCCOc1ccc(cc1)CNc1nc(nc(OCC(F)(F)F)n1)N2)C(=O)O [Example 1411] | 0.1 to 100 |
| CC(C)(C)OC(=O)N[C@H](CCNC(=O)c1ccc2cc1OCCCCCCOc1ccc(cc1)CNc1nc(nc(OCC(F)(F)F)n1)N2)C(=O)O [Example 1412] | 0.1 to 100 |
| O=C(NCCC[C@H](NC(=O)c1ccc2cc1OCCCCCCOc1ccc(cc1)CNc1nc(nc(OCC(F)(F)F)n1)N2)C(=O)O)OCc1ccccc1 [Example 1413] | 0.1 to 100 |
| O=C(NCC1CCNC1)c1ccc2cc1OCCCCCCOc1ccc(cc1)CNc1nc(nc(OCC(F)(F)F)n1)N2 (centres unmarked) [Example 1501] | 0.1 to 100 |
| COC(=O)[C@H](CCN)NC(=O)c1ccc2cc1OCCCCCCOc1ccc(cc1)CNc1nc(nc(OCC(F)(F)F)n1)N2 [Example 1502] | 0.1 to 100 |
| O=C(NCC1CCCN1)c1ccc2cc1OCCCCCCOc1ccc(cc1)CNc1nc(nc(OCC(F)(F)F)n1)N2 (centres unmarked) [Example 1503] | 0.1 to 100 |
| O=C(NCC1(C(=O)O)CCNCC1)c1ccc2cc1OCCCCCCOc1ccc(cc1)CNc1nc(nc(OCC(F)(F)F)n1)N2 [Example 1504] | 0.1 to 100 |
| CC(C)(C)OC(=O)N1CCCC(C(NC(=O)c2ccc3cc2OCCCCCCOc2ccc(cc2)CNc2nc(nc(OCC(F)(F)F)n2)N3)C(=O)O)C1 (centres unmarked) [Example 1551] | 0.1 to 100 |
| O=C(NC(C(=O)O)C1CCCNC1)c1ccc2cc1OCCCCCCOc1ccc(cc1)CNc1nc(nc(OCC(F)(F)F)n1)N2 (centres unmarked) [Example 1552] | 0.1 to 100 |
| NC[C@@H](NC(=O)c1ccc2cc1OCCCCCCOc1ccc(cc1)CNc1nc(nc(OCC(F)(F)F)n1)N2)C(=O)O [Example 1555] | 100 to 1000 |
| CC(C)(C)OC(=O)NC[C@@H](NC(=O)c1ccc2cc1OCCCCCCOc1ccc(cc1)CNc1nc(nc(OCC(F)(F)F)n1)N2)C(=O)O [Example 1556] | 100 to 1000 |
| CC(C)(C)OC(=O)N1CCC(CNC(=O)c2ccc3cc2OCCCCCCOc2ccc(cc2)CNc2nc(nc(OCC(F)(F)F)n2)N3)(C(=O)O)CC1 [Example 1557] | 100 to 1000 |
| CC(C)(C)OC(=O)N1C[C@H](C(=O)O)[C@H](NC(=O)c2ccc3cc2OCCCCCCOc2ccc(cc2)CNc2nc(nc(OCC(F)(F)F)n2)N3)C1 [Example 1558] | 0.1 to 100 |
| CC(C)(C)OC(=O)NC[C@H](NC(=O)c1ccc2cc1OCCCCCCOc1ccc(cc1)CNc1nc(nc(OCC(F)(F)F)n1)N2)C(=O)O [Example 1560] | 0.1 to 100 |
| CC(C)(C)OC(=O)NCC[C@H](NC(=O)c1ccc2cc1OCCCCCCOc1ccc(cc1)CNc1nc(nc(OCC(F)(F)F)n1)N2)C(=O)O [Example 1561] | 0.1 to 100 |
| O=C(NC[C@H](NC(=O)c1ccc2cc1OCCCCCCOc1ccc(cc1)CNc1nc(nc(OCC(F)(F)F)n1)N2)C(=O)O)c1ccccc1 [Example 1562] | 0.1 to 100 |
| N=C(N)NCCC[C@H](NC(=O)c1ccc2cc1OCCOCCOCCOc1ccc(cc1)CNc1nc(nc(OCC(F)(F)F)n1)N2)C(=O)O [Example 1602] | 0.1 to 100 |
| N=C(N)NCCC[C@@H](NC(=O)c1ccc2cc1OCCOCCOCCOc1ccc(cc1)CNc1nc(nc(OCC(F)(F)F)n1)N2)C(=O)O [Example 1603] | 0.1 to 100 |
| COC(=O)[C@H](CNC(=O)OC(C)(C)C)NC(=O)c1ccc2cc1OCCOCCOCCOc1ccc(cc1)CNc1nc(nc(OCC(F)(F)F)n1)N2 [Example 1604] | 0.1 to 100 |

| Compound | EC50 [nM] |
| --- | --- |
| CC(C)(C)OC(=O)N1CCCC(C(NC(=O)c2ccc3cc2OCCOCCOCCOc2ccc(cc2)CNc2nc(nc(OCC(F)(F)F)n2)N3)C(=O)O)C1 (centres unmarked) [Example 1605] | 0.1 to 100 |
| O=C(NC(C(=O)O)C1CCCNC1)c1ccc2cc1OCCOCCOCCOc1ccc(cc1)CNc1nc(nc(OCC(F)(F)F)n1)N2 (centres unmarked) [Example 1606] | 0.1 to 100 |
| COC(=O)C(NC(=O)c1ccc2cc1OCCOCCOCCOc1ccc(cc1)CNc1nc(nc(OCC(F)(F)F)n1)N2)C1CCCNC1 (centres unmarked) [Example 1607] | 0.1 to 100 |
| CC(C)(C)OC(=O)NC[C@H](NC(=O)c1ccc2cc1OCCOCCOCCOc1ccc(cc1)CNc1nc(nc(OCC(F)(F)F)n1)N2)C(=O)O [Example 1608] | 0.1 to 100 |
| CC(C)(C)OC(=O)NC[C@H](NC(=O)c1ccc2cc1OCCCCCCOc1ccc(cc1)CNc1nc(nc(OCC(F)(F)F)n1)N2)C(N)=O [Example 1700] | 0.1 to 100 |
| COC(=O)[C@H](CNC(C)=O)NC(=O)c1ccc2cc1OCCCCCCOc1ccc(cc1)CNc1nc(nc(OCC(F)(F)F)n1)N2 [Example 1701] | 0.1 to 100 |
| COC(=O)[C@H](CNS(C)(=O)=O)NC(=O)c1ccc2cc1OCCCCCCOc1ccc(cc1)CNc1nc(nc(OCC(F)(F)F)n1)N2 [Example 1702] | 0.1 to 100 |
| CNC(=O)NC[C@H](NC(=O)c1ccc2cc1OCCCCCCOc1ccc(cc1)CNc1nc(nc(OCC(F)(F)F)n1)N2)C(=O)OC [Example 1706] | 0.1 to 100 |
| CNC(=O)NC[C@H](NC(=O)c1ccc2cc1OCCCCCCOc1ccc(cc1)CNc1nc(nc(OCC(F)(F)F)n1)N2)C(=O)O [Example 1707] | 0.1 to 100 |
| CC(=O)NC[C@H](NC(=O)c1ccc2cc1OCCCCCCOc1ccc(cc1)CNc1nc(nc(OCC(F)(F)F)n1)N2)C(=O)O [Example 1711] | 0.1 to 100 |
| COC(=O)c1ccc2cc1OCCCCOc1cccc(c1)CNc1nc(nc(OCC(F)(F)F)n1)N2 [Example 1801] | 100 to 1000 |
| CN(C)CC(C)(C)CNC(=O)c1ccc2cc1OCCCCOc1cccc(c1)CNc1nc(nc(OCC(F)(F)F)n1)N2 [Example 1802] | 0.1 to 100 |
| COC(=O)c1ccc2cc1OCCCCCCOc1cccc(c1)CNc1nc(nc(OCC(F)(F)F)n1)N2 [Example 1803] | 1000 to 50000 |
| CN(C)CC(C)(C)CNC(=O)c1ccc2cc1OCCCCCCOc1cccc(c1)CNc1nc(nc(OCC(F)(F)F)n1)N2 [Example 1804] | 100 to 1000 |
| CN(C)CC(C)(C)CNC(=O)c1ccc2cc1OCCCCCCOc1ccccc1CNc1nc(nc(OCC(F)(F)F)n1)N2 [Example 1806] | 100 to 1000 |
| CN(C)CC(C)(C)CNC(=O)c1ccc2cc1OCCCCCCOCC(c1ccccc1)Nc1nc(nc(OCC(F)(F)F)n1)N2 (centres unmarked) [Example 1807] | 1000 to 50000 |
| FC(F)(F)COc1nc2nc(n1)Nc1cccc(c1)OCC=CCOc1ccc(cc1)CN2 [Example 2001] | 0.1 to 100 |
| FC(F)(F)COc1nc2nc(n1)Nc1cccc(c1)OCC=CCOc1cccc(c1)N2 [Example 2003] | 0.1 to 100 |
| FC(F)(F)COc1nc2nc(n1)Nc1cccc(c1)OCCCCOc1cccc(c1)N2 [Example 2004] | 0.1 to 100 |
| COC(=O)c1ccc2cc1OCC=CCOc1ccc(cc1)CNc1nc(nc(OCC(F)(F)F)n1)N2 [Example 2005] | 0.1 to 100 |
| O=C(NCC1(CN2CCCC2)CC1)c1ccc2cc1OCC=CCOc1ccc(cc1)CNc1nc(nc(OCC(F)(F)F)n1)N2 [Example 2006] | 0.1 to 100 |
| CN(C)CC(C)(C)CNC(=O)c1ccc2cc1OCC=CCOc1ccc(cc1)CNc1nc(nc(OCC(F)(F)F)n1)N2 [Example 2007] | 100 to 1000 |
| FC(F)(F)COc1nc2nc(n1)NC1(CC1)c1ccc(cc1)OC/C=C/COc1cccc(c1)N2 [Example 2008] | 0.1 to 100 |
| FC(F)(F)COc1nc2nc(n1)NC1(CC1)c1ccc(cc1)OCCCCOc1cccc(c1)N2 [Example 2009] | 0.1 to 100 |
| COC(=O)c1ccc2cc1OCCCN(C(=O)OC(C)(C)C)CCCOc1ccc(cc1)CNc1nc(nc(OCC(F)(F)F)n1)N2 [Example 3001] | 0.1 to 100 |
| CC(C)(C)OC(=O)N1CCCOc2ccc(cc2)CNc2nc(nc(OCC(F)(F)F)n2)Nc2ccc(C(=O)O)c(c2)OCCC1 [Example 3002] | 0.1 to 100 |

Same assay, conditions: Hepatitis C virus, Huh-7, 48 h, numeric value; HCV pseudoparticles genotype 1a (H77C), Huh7 cells, luciferase 2 days after infection, average of duplicates

| Compound | EC50 [nM] |
| --- | --- |
| CC(C)(C)OC(=O)N[C@H](CCNC(=O)c1ccc2cc1OCCCCCCOc1ccc(cc1)CNc1nc(nc(OCC(F)(F)F)n1)N2)C(=O)O [Example 1412] | 24.8 |
| CC(C)(C)OC(=O)NC[C@@H](NC(=O)c1ccc2cc1OCCCCCCOc1ccc(cc1)CNc1nc(nc(OCC(F)(F)F)n1)N2)C(=O)O [Example 1556] | 101 |
| O=C(NC[C@H](NC(=O)c1ccc2cc1OCCCCCCOc1ccc(cc1)CNc1nc(nc(OCC(F)(F)F)n1)N2)C(=O)O)c1ccccc1 [Example 1562] | 28.7 |
| CC(C)(C)OC(=O)N1CCCC(C(NC(=O)c2ccc3cc2OCCOCCOCCOc2ccc(cc2)CNc2nc(nc(OCC(F)(F)F)n2)N3)C(=O)O)C1 (centres unmarked) [Example 1605] | 23 |
| CC(C)(C)OC(=O)NC[C@H](NC(=O)c1ccc2cc1OCCOCCOCCOc1ccc(cc1)CNc1nc(nc(OCC(F)(F)F)n1)N2)C(=O)O [Example 1608] | 56.2 |
| CN(C)CC(C)(C)CNC(=O)c1ccc2cc1OCCCCCCOc1cccc(c1)CNc1nc(nc(OCC(F)(F)F)n1)N2 [Example 1804] | 239 |
| CN(C)CC(C)(C)CNC(=O)c1ccc2cc1OCC=CCOc1ccc(cc1)CNc1nc(nc(OCC(F)(F)F)n1)N2 [Example 2007] | 159 |
| FC(F)(F)COc1nc2nc(n1)NC1(CC1)c1ccc(cc1)OCCCCOc1cccc(c1)N2 [Example 2009] | 18 |

Same assay, conditions: read-out: EC50

| Compound | EC50 [nM] |
| --- | --- |
| O=C(NC(C(=O)O)C1CCNC1)c1ccc2cc1OCCCCCCOc1ccc(cc1)CNc1nc(nc(OCC(F)(F)F)n1)N2 (centres unmarked) [Example 1553] | 0.1 to 100 |
| NC[C@H](NC(=O)c1ccc2cc1OCCCCCCOc1ccc(cc1)CNc1nc(nc(OCC(F)(F)F)n1)N2)C(=O)O [Example 1559] | 0.1 to 100 |
